From patent US20240148835A1, “TREATING DISORDERS ASSOCIATED WITH DYRK1A DYSFUNCTION” (UNIVERSITY OF FLORIDA RESEARCH FOUNDATION, INCORPORATED, priority 2021, published 2024)
“Also recorded” adds a separate entry of the source.

Key:
[1] = test system: Dyrk1a cHets; test: Chronic (1-3)IGF-1 treatment from P14: behavioral battery; type: in vivo, mouse
Excerpt: To determine whether chronic (1-3)IGF-1 administration ameliorates ASD-relevant behaviors, we conducted a behavioral battery to assay sociability and repetitive behaviors as well as locomotion, anxiety-like behavior, acoustic startle, and sensorimotor gating. […] Taken together, (1-3)IGF-1 treatment ameliorates morphological, neuronal, and behavioral deficits caused by cortical Dyrk1a mutations.
(§1) (1-3)IGF-1 was acquired from VWR/Bachem (catalog #H-2468.1000) and dissolved in saline with 0.01% BSA fresh every day. Intraperitoneal injections of 10 mg kg′ (1-3)IGF-1 or vehicle were delivered daily at 8 a.m. starting on P14 and ending on P85. […] The S6K1 inhibitor PF-4708671 was acquired from Medkoo Biosciences (#406432) dissolved in 10% DMSO, 10% tween 80 and 80% water. (1-3)IGF-1 (10 mg kg′) and PF-4708671 (50 mg kg^−1) or vehicle were injected subcutaneously into pups from P0 to P7. Rapamycin was acquired from LC laboratories (R-5000) and dissolved in 4% ethanol, 5% tween-80, and 5% PEG400 in PBS. (1-3)IGF-1 (10 mg kg′) and Rapamycin (1 mg kg′) or vehicle were injected subcutaneously into pups from P0 to P7. SB216763 was acquired from TOCRIS (#1616) and dissolved in 5% DMSO and 0.9% saline in dH20. SB216763 (0.5 mg kg′) was injected subcutaneously into pups from P0 to P7.
3 chamber social approach: Briefly, after at least 2 weeks housing under reversed light cycle, each mouse was habituated in the three-chamber box for 5 minutes before a stimulus mouse was placed into a tube in the “social” chamber. The stimulus mice used were young adult male mice. The time spent in each chamber (“mouse+tube”, “empty tube”, “center”) was hand-scored for sniffing time using Boris.
Marble burying: Male mice were placed individually in a cage with 5 cm of ¼″ corncob bedding and 20 black marbles (14.3 mm in diameter) arranged in a 4×5 matrix and left undisturbed for 30 min. The number of marbles that were at least two-thirds buried at the end of the trial were counted. […]

[2] = test system: protein synthesis in the mPFC of cHets; test: SUnSET puromycin incorporation assay (protein synthesis) in mPFC after (1-3)IGF-1 treatment; type: in vivo, mouse
Description: Protein synthesis is a critical output of mTOR signaling, particularly downstream of P70 Ribosomal S6 Kinase (S6K1).
as §1
300 μm coronal prefrontal cortical slices were obtained from postnatal day 7 (P7) and adult mice. Slices were allowed to recover in artificial cerebrospinal fluid (in mM: 124 NaCl, 2.8 KCl, 2 CaCl2, 1.25 NaH2P04, 1.25 MgSO4, 26 NaHCO3, 10 Dextrose) for 2 h at 32° C. Puromycin (5 μg ml-1) was applied to slices for 40 min at 32° C. to label newly synthesized proteins. Slices were then snap frozen on dry ice and stored at −80° C. until used. Protein (50 μg) was loaded on 4-12% gradient gels, transferred onto polyvinylidene difluoride membranes, and probed with anti-puromycin antibody (1:5,000, Millipore, MABE343). Anti-mouse HRP-tagged secondary antibody was used and chemiluminiscence was developed using standard ECL reagents. Quantification was done by measuring intensity of each lane from 14 to 191 kDa, subtracting it from the intensity of the unlabeled lane and normalized to loading control.

[3] = 3-chamber social approach, cHets

(1-3)IGF-1: a tripeptide cleaved from the N-terminus of IGF-1; acquired from VWR/Bachem, CAS No. 32302-76-4 (GPE; Insulin-like growth factor 1; UniProt P05019 49-51, looked up, fragment)
preference index [1, 3]: restored
social interaction time (hand-scored) [1, 3]: increased
social deficit of cHets (time interacting with stimulus mouse, preference index) ([1]; 3-chamber social approach, cHets, daily from P14): restored this social deficit in cHets
sociability of controls ([1]; 3-chamber social approach, controls): did not impact controls
preference for stimulus mouse vs inanimate object within group, 3-chamber social approach ([1]; all genotype X treatment groups): significant preference for interaction with a stimulus mouse; also recorded: significant preference for social interaction
number of marbles buried by cHets ([1]; marble burying, cHets): no effect; also recorded: subtle modification of the phenotype
qualitative interaction with the marbles ([1]; marble burying, cHets): qualitatively interaction with the marbles increased in cHets
puromycin incorporation (protein synthesis) in adult cHets ([2]; adult, chronic treatment): significantly increased; also recorded: restores decreased protein synthesis
puromycin incorporation in adult controls ([2]; adult, relative to vehicle-treated controls): significant decrease in puromycin incorporation
puromycin incorporation (protein synthesis) in neonatal cHets ([2]; daily treatment from P0 to P7): increased puromycin abundance; also recorded: restores decreased protein synthesis
puromycin incorporation in neonatal controls ([2]; daily treatment from P0 to P7): without impacting controls
